Assay results from ChEMBL document CHEMBL1146362, “Organoiodine(III) mediated synthesis of 3,9-diaryl- and 3,9-difuryl-bis-1,2,4-triazolo[4,3-a][4,3-c]pyrimidines as antibacterial agents” (2007).
Converted amounts (≈) assume the structure as drawn. The source made the active and inactive calls. The rule behind the calls is not given here.

Legend:
Salmonella typhi [1] = assay: Antibacterial activity against Salmonella typhi MTCC 733 after 24 hrs by agar dilution assay; format: functional, Salmonella enterica subsp. enterica serovar Typhi; conditions: Salmonella enterica, MTCC 733, 24 h
[2] = test system: Staphylococcus epidermidis; assay: Antibacterial activity against Staphylococcus epidermidis MTCC 2639 after 24 hrs by agar diffusion assay; format: functional
Bacillus subtilis [3] = assay: Antibacterial activity against Bacillus subtilis MTCC 121 after 24 hrs by agar dilution assay; format: functional; conditions: MTCC 121, 24 h
Staphylococcus aureus [4] = assay: Antibacterial activity against Staphylococcus aureus MTCC 3160 after 24 hrs by agar dilution assay; format: functional; conditions: MTCC 3160, 24 h
Escherichia coli [5] = assay: Antibacterial activity against Escherichia coli MTCC 51 after 24 hrs by agar dilution assay; format: functional; conditions: MTCC 51, 24 h
Escherichia coli [6] = assay: Antibacterial activity against Escherichia coli MTCC 51 after 24 hrs by agar diffusion assay; format: functional
Salmonella typhi [7] = assay: Antibacterial activity against Salmonella typhi MTCC 733 after 24 hrs by agar diffusion assay; format: functional, Salmonella enterica subsp. enterica serovar Typhi
Staphylococcus aureus [8] = assay: Antibacterial activity against Staphylococcus aureus MTCC 3160 after 24 hrs by agar diffusion assay; format: functional
Bacillus subtilis [9] = assay: Antibacterial activity against Bacillus subtilis MTCC 121 after 24 hrs by agar diffusion assay; format: functional
[10] = test system: Staphylococcus epidermidis; assay: Antibacterial activity against Staphylococcus epidermidis MTCC 2639 after 24 hrs by agar dilution assay; format: functional; conditions: MTCC 2639, 24 h

SMILES | MIC (Salmonella typhi [1]) [µg/mL] | Activity [2] | MIC (Bacillus subtilis [3]) [µg/mL] | MIC (Staphylococcus aureus [4]) [µg/mL] | MIC (Escherichia coli [5]) [µg/mL] | Activity (Escherichia coli [6]) | inhibition zone (IZ) (Salmonella typhi [7]) [mm] | inhibition zone (IZ) (Staphylococcus aureus [8]) [mm] | inhibition zone (IZ) (Bacillus subtilis [9]) [mm] | MIC [10] [µg/mL] | inhibition zone (IZ) [2] [mm] | inhibition zone (IZ) (Escherichia coli [6]) [mm] | Activity (Staphylococcus aureus [8]) | Activity (Bacillus subtilis [9]) | Activity (Salmonella typhi [7]; Salmonella enterica subsp. enterica serovar Typhi)
COc1ccc(-c2nnc3n2ccc2nnc(-c4ccc(OC)cc4)n23)cc1 | 64 (≈ 172 µM) | inactive | 64 (≈ 172 µM) | 64 (≈ 172 µM) | > 64 | inactive | 10 | 10.83 | 10 | > 64 |  |  |  |  | 
O=[N+]([O-])c1ccc(-c2nnc3n2ccc2nnc(-c4ccc([N+](=O)[O-])o4)n23)o1 | 1 (≈ 2.62 µM) |  | 0.5 (≈ 1.31 µM) | 8 (≈ 20.9 µM) | 2 (≈ 5.23 µM) |  | 35.16 | 20.83 | 40 | 1 (≈ 2.62 µM) | 35 | 30 |  |  | 
Clc1ccc(-c2nnc3n2ccc2nnc(-c4ccc(Cl)cc4)n23)cc1 | 8 (≈ 21 µM) | inactive | 8 (≈ 21 µM) | 32 (≈ 83.9 µM) | > 64 | inactive | 20 | 15 | 20 | > 64 |  |  |  |  | 
c1coc(-c2nnc3n2ccc2nnc(-c4ccco4)n23)c1 | 64 (≈ 219 µM) |  | 8 (≈ 27.4 µM) | 0.5 (≈ 1.71 µM) | 64 (≈ 219 µM) |  | 10 | 40 | 20 | 64 (≈ 219 µM) | 10 | 10 |  |  | 
N[C@@H](C(=O)N[C@@H]1C(=O)N2C(C(=O)O)=C(Cl)CS[C@H]12)c1ccccc1 [CEFACLOR ANHYDROUS] | 2 (≈ 5.44 µM) |  | 8 (≈ 21.8 µM) | 4 (≈ 10.9 µM) | 4 (≈ 10.9 µM) |  |  |  |  | 4 (≈ 10.9 µM) |  |  |  |  | 
Brc1ccc(-c2nnc3n2ccc2nnc(-c4ccc(Br)cc4)n23)cc1 | 32 (≈ 68.1 µM) | inactive | > 64 | > 64 | > 64 | inactive | 15 |  |  | > 64 |  |  | inactive | inactive | 
COc1ccc(OC)c(-c2nnc3n2ccc2nnc(-c4cc(OC)ccc4OC)n23)c1 | 8 (≈ 18.5 µM) |  | 32 (≈ 74 µM) | 8 (≈ 18.5 µM) | > 64 | inactive | 20 | 20.16 | 15.16 | 8 (≈ 18.5 µM) | 20 |  |  |  | 
CC(=O)NC[C@H]1CN(c2ccc(N3CCOCC3)c(F)c2)C(=O)O1 [LINEZOLID] | 2 (≈ 5.93 µM) |  | 2 (≈ 5.93 µM) |  | 8 (≈ 23.7 µM) |  |  |  |  | 8 (≈ 23.7 µM) |  |  |  |  | 
Fc1ccc(-c2nnc3n2ccc2nnc(-c4ccc(F)cc4)n23)cc1 | 64 (≈ 184 µM) |  | 2 (≈ 5.74 µM) | 4 (≈ 11.5 µM) | 4 (≈ 11.5 µM) | inactive | 10 | 24.83 | 25 | 4 (≈ 11.5 µM) | 25 |  |  |  | 
O=[N+]([O-])c1ccc(-c2nnc3n2ccc2nnc(-c4ccc([N+](=O)[O-])cc4)n23)cc1 | 1 (≈ 2.49 µM) |  | 1 (≈ 2.49 µM) | 1 (≈ 2.49 µM) | 2 (≈ 4.97 µM) |  | 30 | 30 | 30 | 2 (≈ 4.97 µM) | 25.16 | 25 |  |  | 
Cc1ccc(-c2nnc3n2ccc2nnc(-c4ccc(C)cc4)n23)cc1 | > 64 | inactive | 8 (≈ 23.5 µM) | > 64 | > 64 | inactive |  |  | 20.83 | > 64 |  |  | inactive |  | inactive
